From patent publication US20250041272A1, “COMPOSITIONS AND METHODS FOR TREATING CANCER VIA PTP1B INHIBITION” (priority 2021, published 2025)

Legend:
[1] = target: T1, ternary complex of PTP1b with Mer and Stat1 (Mus musculus, UniProt P35821); experiment: Co-immunoprecipitation of PTP1b or Stat1 from macrophages co-cultured with B16F10 cells; assay type: cell-based
T1 construct: endogenous in cells; host or cells: Primary peritoneal macrophages from C57BL/6J mice, stimulated with IFNγ and LPS and co-cultured with B16F10 melanoma cells
T1 sequence (P35821 1-432): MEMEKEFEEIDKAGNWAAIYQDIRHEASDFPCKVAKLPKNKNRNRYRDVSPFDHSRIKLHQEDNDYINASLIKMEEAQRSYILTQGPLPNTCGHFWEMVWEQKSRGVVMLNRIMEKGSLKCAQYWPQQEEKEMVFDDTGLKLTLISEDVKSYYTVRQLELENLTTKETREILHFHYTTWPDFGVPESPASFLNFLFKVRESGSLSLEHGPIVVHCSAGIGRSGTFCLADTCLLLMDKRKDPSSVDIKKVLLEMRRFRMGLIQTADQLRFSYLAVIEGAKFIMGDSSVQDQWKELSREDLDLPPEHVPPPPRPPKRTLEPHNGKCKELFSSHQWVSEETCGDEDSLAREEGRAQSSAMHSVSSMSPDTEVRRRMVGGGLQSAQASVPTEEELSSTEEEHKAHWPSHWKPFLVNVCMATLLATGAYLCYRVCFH
Method: Coimmunoprecipitation and Western blot. Coimmunoprecipitation was performed using […] A/G agarose beads (Santa Cruz Biotechnology Inc.) and antibodies for PTP1b (Abcam) or STAT1 (Cell signaling). Samples were incubated for 3 days at 4° C. under rotation and washed three times with RIPA buffer before loading them in 10% Mini-PROTEAN TGX stain-free gels (Biorad). After running the electrophoresis in the Mini-PROTEAN Tetra System (Bio-Rad) proteins were transferred to a 0.2-μm nitrocellulose Trans-Blot Mini Turbo Transfer Pack (Bio-Rad) using a Trans-Blot Turbo Transfer System (Bio-Rad). Membranes were blocked with 5% BSA (Fisher scientific) for 1 hour and blotted with antibodies against MyD88 (Cell Signaling), total STAT1 (Cell Signaling), tyrosine 701 phosphorylated STAT1 (Cell signaling), serine 727 phosphorylated STAT1 (Cell signaling), PTP1 b (Abcam) and Mer (Thermo Fisher scientific). Detection was performed with the ECL HPR-linked anti-rabbit antibody (Cell signaling) and the Clarity-Max Western ECL substrate (Bio-Rad). Blots were imaging with ChemiDoc MP Imaging System (Bio-Rad) and quantitated using ImageJ software (NIH).

[2] = tested on: Stat1 phosphorylation and MyD88 in macrophages; experiment: Transwell co-culture of M1 induced macrophages with tumor cells plus inhibitors (Western blot, qRT-PCR); assay type: cell-based, mouse; settings: 24 hours
Method: Peritoneal macrophage isolation and culture. Peritoneal macrophages were done as described previously(65) from 8-week-old C57BL/6J mice (randomized, both male and female). PBS (Gibco) was injected in the mural peritoneal cavity to release the macrophages. After recovering, cells were centrifuged at 1200 rpm for 5 minutes, resuspended in DMEM high glucose, 10% FBS, 1% penicillin-streptomycin (Gibco) and plated. 2 hours after the last step, cells were washed with PBS and maintained in DMEM/F12 supplemented with 10% FBS, 1% penicillin-streptomycin and 20 ng/ml of M-CSF (Prospec) for 2 days. Macrophages were treated for 24 hours with 50 ng/ml LPS (Sigma Millipore), 100 ng/ml IFNγ (BioLegend), 300 ng/ml PAM3CSK4 (InvivoGen), 107 cells/ml heat killed Listeria Monocytogenes (HKLM) (InvivoGen), 100 ng/ml Flagellin Salmonella typhimurium standard (InvivoGen), 10 ng/ml FSL1 (InvivoGen), 2.5 ug/ml ssRNA40 (InvivoGen), 2.5 ug/ml CL 075 (Tocris), 5 μM ODN1826, 50 μM Fludarabine (SelleckChem), 50 nM Momelotinib (SelleckChem), 5 μM BVT948 (Sigma Millipore), 200 μM PTP1b inhibitor III (Santa Cruz Biotechnology Inc.), 5 μM NSC87877 (Santa Cruz Biotechnology Inc.), 50 μM PTP1b inhibitor (Cayman), 1 mM PTP Inhibitor IV (Santa Cruz Biotechnology Inc.), 1 μM TSC401, 300 nM UNC2371 (SelleckChem), 300 nM BMS777607 (SelleckChem), 300 nM LDC1267 (SelleckChem) 1.5 μg/ml recombinant Pros1 (R&D systems), 200 ng/ml recombinant Gas6 (R&D systems) or 10-500 μM Cisplatin (Tocris). All components were added as described in the text. Cell culture. B16F10 (CRL-6475, ATCC), Lewis lung carcinoma (LLC) (CRL-1642, ATCC), KPC2713 (Yuliya Pylayeva-Gupta laboratory, UNC) and MDA-MB-231 (HTB-26, ATCC) were cultured in DMEM high glucose supplemented with 10% FBS, 1% penicillin-streptomycin (Gibco). […]

[3] = co-immunoprecipitation of Stat1, 24 hours

## BVT948
[1]; co-immunoprecipitation of PTP1b, in the presence of B16F10 cells
  association of PTP1b with Mer and Stat1: reduced the association
[1]; [3]
  Stat1 S727 phosphorylation: restoration of Stat1 S727 phosphorylation
  ternary complex formation: reduced ternary complex formation
[2]
  Stat1 phosphorylation at Tyrosine 701 and Serine 727: increased
